Data as given in US11672802B2, “Induction of immune tolerance by using methotrexate” (Genzyme Corporation, priority 2011, dated 2023).

What was measured:
anti-rhGAA IgG = assay: Anti-rhGAA IgG ELISA titers in mice treated with rhGAA; type: in vivo; settings: for anti-rhGAA titers: IL-10 knockout animals, rhGAA and methotrexate
Method: Recombinant human alglucosidase alfa (rhGAA, marketed by Genzyme Corp. as Myozyme®) was used as a formulated drug product. Mice were treated weekly with 20 mg/kg of rhGAA by bolus tail vein injection unless stated differently. All mice were treated prophylactically with 5 to 30 mg/kg diphenhydramine (Baxter Healthcare Corporation, Deerfield, Ill.) intraperitoneally prior to rhGAA administration. Control animals were treated intravenously with either sterile 0.9% saline or rhGAA-formulation buffer. Methotrexate treatment
Mice were bled 4-6 days following rhGAA treatment and specific IgG was measured by ELISA. […] Endpoint titers were defined as the reciprocal of the sample dilution resulting in an absorbance value of 0.2 using Softmax software (Molecular Devices, Sunnyvale, Calif.).
C57Bl/6 mice were treated with one 20 mg/kg intravenous dose of rhGAA (Genzyme Corporation), 3 consecutive intraperitoneal doses of 5 mg/kg methotrexate (APP Pharmaceuticals, LLC), and either 1D11 or 13C4 at 5 mg/kg (Genzyme Corporation) for 3 doses every other day. Methotrexate, 1D11, and 13C4 treatment commenced with rhGAA injections. Spleens were collected 7 days after treatment initiation and were processed as described above for B cells, culture and flow analysis. Additionally, rhGAA titer data was obtained by treating animals as described above, with rhGAA dosed weekly over 12 weeks, methotrexate dosed for either 1 or 3 cycles, and 1D11 or 13C4 dosed 3 times a week every other day for 12 weeks. Serum samples were collected every 2 weeks for ELISA analysis.

anti-mATG antibody = assay: Anti-mATG titers in cardiac allograft transplant mice; type: in vivo; settings: seven days following transplant, mice treated with methotrexate and mATG
Method: Polyclonal antibody mATG was administered as an intraperitoneal injection of 5 mg/kg every four weeks or as two 20 mg/kg doses given four days apart when in the transplant setting with the first dose given on the day of transplant (day 0).
(§1) The levels of anti-mATG IgG in mouse serum were analyzed by enzyme linked immunosorbent assay (ELISA). […] End-point titers were defined as the […] dilution that averages above an absorbance of 0.100 using Softmax software (Molecular Devices, Sunnyvale, Calif., USA).
C57BL/6 and BALB/c mice were obtained from Charles River (Kingston, N.Y. or Raleigh, N.C.) and used in these experiments between 8 and 13 weeks of age. The donor allogenic C57BL/6 mice were first anesthetized with an intraperitoneal injection of Ketamine (Fort Dodge Animal Health/Pfizer, Fort Dodge, Iowa) and Xylazine (Lloyd, Shenandoah, Iowa) and a median sternotomy was performed. […] The ascending aorta and pulmonary artery were then transected, the graft removed from the donor and the heart was stored in ice-cold saline until engraftment. A recipient mouse (Balb/c) was similarly anesthetized and prepped as described above for donor mice, except that the abdominal cavity was opened. […] Grafts were assessed by palpation 5-7 times per week for the first 30 day, and then 3-4 times per week until the end of the study.

anti-mATG IgG = assay: Anti-mATG (anti-rabbit) IgG ELISA titers in mice treated with mATG; type: in vivo, C57BL/6 mice; parameters: reduction of anti-mATG antibody responses, area under the effect curves / reduction of anti-mATG IgG titers, area under the effect curves / reduction of anti-mATG IgG titers: concentration or dose not given beside the values
Method: as §1

[1] = test system: cytokines (BAFF, TNF-alpha, MCP-1, IL-13, IL-6, IL-12); assay: Serum cytokine levels in alemtuzumab-treated mice; type: in vivo, huCD52 Tg mice
[2] = test system: circulating and splenic T cells and B cells; assay: Flow cytometry of alemtuzumab-mediated lymphocyte depletion in blood and spleen; type: in vivo, huCD52 Tg mice
Method: For splenocyte and lymph node cell preparations single-cell suspensions were generated from harvested mouse spleens or inguinal and mesenteric lymph nodes by homogenization between frosted glass slides into PBS containing 2% FCS. For splenocyte preparations, red blood cells were lysed by 1-2 minute incubation with a red blood cell lysis solution (BD Biosciences, San Diego, Calif.). Blood was isolated by retro-orbital bleeding and cell preparations were performed by lysing red blood cells with red blood cell lysing solution (BD Biosciences) for 20-30 minutes. For all tissue preparations, live cells were enumerated using the ViCell automated counter (Beckman Coulter, Fullerton, Calif.). Following isolation, all cell preparations were washed with PBS/2% FCS prior to use in the assays described below.
For evaluation of cell populations within different tissues, single cell suspensions of the tissues were incubated with fluorochrome-conjugated antibodies that included anti-mouse CD4, CD8, CD25, CD44, CD62L (all antibodies from BD Biosciences or eBioscience, San Diego, Calif.). Intracellular Foxp3 expression analysis was performed according to the anti-Foxp3 manufacturer's protocol (eBiosciences, San Diego, Calif.). Following incubation with the antibodies, cells were washed and analyzed by flow cytometry (FACSCanto, BD Biosciences and FCS Express software, De Novo Software, Los Angeles, Calif.).

CN(Cc1cnc2nc(N)nc(N)c2n1)c1ccc(C(=O)N[C@@H](CCC(=O)O)C(=O)O)cc1 [methotrexate, Methotrexate]
anti-rhGAA responses (anti-rhGAA IgG; C57BL/6 wild-type, rhGAA and three cycles methotrexate, weeks 4, 6 and 9): decreased | anti-rhGAA titers (anti-rhGAA IgG; week 9): slight decrease | anti-rhGAA titers (anti-rhGAA IgG; weeks 4 and 6): not decreased | duration of control of anti-rhGAA responses (anti-rhGAA IgG; single cycle of three daily doses of 5 mg/kg methotrexate at week 1): at least 20 weeks | animals exhibiting high anti-rhGAA titers (anti-rhGAA IgG; week 6, rhGAA alone, rhGAA + methotrexate, or with 5 mg/kg 1D11 or 13C4): none | anti-rabbit IgG antibody titers (anti-mATG antibody): significantly lower | reduction of anti-mATG IgG titers (anti-mATG IgG; a single course of methotrexate): > 95% | anti-mATG (anti-rabbit IgG) titer lower than with mATG alone (anti-mATG IgG; mATG and a single cycle of methotrexate vs mATG alone): 100 fold | suppression of anti-mATG IgG responses, area under the effect curves (anti-mATG IgG; methotrexate 5 mg/kg ip six consecutive days, mATG 25 mg/kg x2, 3 days apart, through eight weeks): 95% | reduction of anti-mATG IgG titers, area under the effect curves (anti-mATG IgG; single course of methotrexate, mATG re-challenge after eight weeks rest): 99% | anti-mATG IgG titer (anti-mATG IgG; single cycle of methotrexate around first of five monthly mATG treatments): approximately 50,000 | long-lived reduction in ADA (anti-mATG IgG; single cycle of methotrexate within first week of a protein therapy, over many months of dosing (summary statement)): greater than 95% | reduction of anti-mATG IgG titers, area under the effect curves (anti-mATG IgG; single cycle regimen, five monthly mATG (FIG. 4C)): 98% | reduction of anti-mATG IgG titers, area under the effect curves (anti-mATG IgG; three cycle regimen, five monthly mATG (FIG. 4C)): 69% | reduction of anti-mATG IgG titers, area under the effect curves (anti-mATG IgG; three cycle regimen, mATG re-challenge after eight weeks rest): 85% | anti-mATG antibody titers (anti-mATG IgG; three cycles of methotrexate 5 mg/kg with first three monthly mATG treatments): 816,000 | reduction of anti-mATG antibody responses, area under the effect curves (anti-mATG IgG; three cycles of methotrexate, five monthly mATG (FIG. 4A)): 79% | levels of pro-inflammatory cytokines MCP-1, IL-13, IL-6 and IL-12 ([1]; 24 hours after fifth alemtuzumab dose, methotrexate 5 mg/kg three days at first dose): decreased | TNF-alpha levels ([1]; methotrexate 2 mg/kg, one week after second cycle of alemtuzumab): statistically significant increase | BAFF levels ([1]; serum, 24 hours after 5th dose of alemtuzumab, with vs without methotrexate): no difference | depletion of circulating T cells by fifth monthly dose of alemtuzumab ([2]; alemtuzumab alone, or with methotrexate 5 mg/kg daily for first three days): restored the ability of alemtuzumab to deplete T cells | splenic T cell populations ([2]; methotrexate-treated animals, one day following fifth alemtuzumab treatment): significantly depleted | splenic B cell populations, except follicular B cells ([2]; mice treated with alemtuzumab and methotrexate, after fifth alemtuzumab dose): not significantly depleted | effect on marginal zone B cells with alemtuzumab ([2]; spleen, two days following last day of methotrexate treatment): may enhance the depletion of marginal zone B cells | depletion of circulating B cells by fifth monthly dose of alemtuzumab ([2]; with methotrexate 5 mg/kg daily for first three days): enhance the depletion of B cells
